Experimental data: patent US20220026420A1, “MOLECULES AND METHODS FOR IMPROVED IMMUNODETECTION OF SMALL MOLECULES SUCH AS HISTAMINE” (PRESIDENT AND FELLOWS OF HARVARD COLLEGE, priority 2018, published 2022)
Values belong to the molecule of their own block, whether it stands above or below them.

Columns and labels:
anti-histamine antibody [1] = experiment: Competitive histamine ELISA with PEG linkers on streptavidin plates, anti-IgG HRP detection; type: binding
Protocol: To identify an antibody that recognizes free histamine with improved (lower) binding affinities, we used the PEG-mono-histidine linker (Structure 1) as a target with antibodies that we previously screened with BSA-histamine, i.e., the antibodies listed in FIG. 3A. […] The monovalent histidine linker (25 μM) 86 was added for 1 hour, and then 5 μg ml^−1 anti-histamine antibody was incubated with different concentrations of soluble histamine for 1 hour at room temperature on a shaker 88. Finally, anti-IgG labelled HRP 810 was used to detect the bound antibodies.
The monovalent histidine linker (25 μM) 86 was added for 1 hour, and then 5 μg ml^−1 anti-histamine antibody was incubated with different concentrations of soluble histamine for 1 hour at room temperature on a shaker 88. Finally, anti-IgG labelled HRP 810 was used to detect the bound antibodies.
Histamine detection assay could be performed in two formats. The first format includes the immobilization of histamine conjugates to the solid support while the second format includes the immobilization of anti-histamine antibody on the solid support. For the immobilization of histamine conjugates the immobilization sample was prepared in 0.2 M carbonate-bicarbonate buffer (pH 9.4). Immobilisation samples herein refers to BSA-histamine, Streptavidin, and not limited to BSA-Histidine Samples. A high binding polystyrene 96 well ELISA plate was coated with 100 microliters of immobilization sample and the plates were incubated overnight at 4° C. Each well was then washed thrice with 0.01M phosphate-buffered saline with 0.05% Tween 20 (pH 7.4). To each well was then added 250 microliters 1% BSA solution prepared in 0.01M phosphate-buffered saline with 0.05% Tween 20 (pH 7.4) for 1 hour at ambient temperature. Each well was then washed three times with 0.01M phosphate-buffered saline with 0.05% Tween 20 (pH 7.4). For Streptavidin coated plates, to each well was then added 100 microliters of linkers prepared in 0.1% BSA in 0.01M phosphate-buffered saline with 0.05% Tween 20 (pH 7.4) as described in the other sections for 2 hours at ambient temperature on a shaker at 260 rpm. Each well was then washed three times with 0.01M phosphate-buffered saline with 0.05% Tween 20 (pH 7.4). The plate was then incubated with 50 microlitres of different concentration of free histamine and co-incubated with anti-histamine antibody for 1 hour at ambient temperature. […]. Anti-histamine antibody was prepared in 0.1% BSA in 0.01M phosphate-buffered saline with 0.05% Tween 20 (pH 7.4). After the incubation, each well was washed three times with 0.01M phosphate-buffered saline with 0.05% Tween 20 (pH 7.4). […]

[2] = system: anti-histamine antibody conjugated to HRP; experiment: Refined 5 min histamine ELISA with anti-histamine antibody conjugated to HRP; type: binding; conditions: for starting signal compared to PEG-mono histidine: 5 min assay; for Kd: Hill equation fit without the 0 nM histamine data point, read-out: dissociation constant (Kd)
Protocol: The assay was further refined to decrease the total assay time. This was achieved by conjugating the anti-histamine antibody to the detection enzyme HRP 192 as depicted by FIG. 19. The resultant assay could be completed within 5 min. For the present study, only PEG-mono histidine and PEG-dual histidine were used. FIG. 20A and FIG. 20B show the results obtained from the study.
The data points obtained were fitted using a Hill equation which further assisted to characterize the linkers under study.
Histamine detection assay could be performed in two formats. The first format includes the immobilization of histamine conjugates to the solid support while the second format includes the immobilization of anti-histamine antibody on the solid support. For the immobilization of histamine conjugates the immobilization sample was prepared in 0.2 M carbonate-bicarbonate buffer (pH 9.4). Immobilisation samples herein refers to BSA-histamine, Streptavidin, and not limited to BSA-Histidine Samples. A high binding polystyrene 96 well ELISA plate was coated with 100 microliters of immobilization sample and the plates were incubated overnight at 4° C. Each well was then washed thrice with 0.01M phosphate-buffered saline with 0.05% Tween 20 (pH 7.4). To each well was then added 250 microliters 1% BSA solution prepared in 0.01M phosphate-buffered saline with 0.05% Tween 20 (pH 7.4) for 1 hour at ambient temperature. Each well was then washed three times with 0.01M phosphate-buffered saline with 0.05% Tween 20 (pH 7.4). For Streptavidin coated plates, to each well was then added 100 microliters of linkers prepared in 0.1% BSA in 0.01M phosphate-buffered saline with 0.05% Tween 20 (pH 7.4) as described in the other sections for 2 hours at ambient temperature on a shaker at 260 rpm. Each well was then washed three times with 0.01M phosphate-buffered saline with 0.05% Tween 20 (pH 7.4). The plate was then incubated with 50 microlitres of different concentration of free histamine and co-incubated with anti-histamine antibody for 1 hour at ambient temperature. […]. Anti-histamine antibody was prepared in 0.1% BSA in 0.01M phosphate-buffered saline with 0.05% Tween 20 (pH 7.4). After the incubation, each well was washed three times with 0.01M phosphate-buffered saline with 0.05% Tween 20 (pH 7.4). The plates were then incubated with a secondary antibody labelled with HRP prepared in 0.1% BSA in 0.01M phosphate-buffered saline with 0.05% Tween 20 (pH 7.4) in for 1 hour at ambient temperature. After the incubation, each well was washed three times with 0.01M phosphate-buffered saline with 0.05% Tween 20 (pH 7.4). Each well was then incubated with TMB turbo (150 microlitres) for 30 minute (measurement at a wavelength of 650 nm) followed by addition of 150 microlitres of 0.16 M Sulphuric acid to stop the solution in some examples where measurements are taken at a wavelength of 450 nm. […] Independent incubation time is described in each section.

anti-histamine antibody [3] = experiment: 5-minute electrochemical assay in spiked human plasma samples; type: binding
From the text: The Immuno-assay developed on the ELISA plates using PEG-dual Histidine was translated to an electrochemical platform to develop a biosensor for free histamine detection in human plasma samples.

anti-histamine antibody [4] = experiment: Histamine ELISA in spiked human plasma samples, conventional plate versus BSA-glutaraldehyde surface chemistry; type: binding; conditions: FIG. 28
Protocol: In order for the assay design to be used for clinical applications for the rapid quantification of allergy severity, using clinical samples (e.g. human plasma, serum) is one of the most critical aspects. An ELISA plate was prepared using conventional means as shown in FIG. 19 using PEG-dual-histidine. In an alternative approach, an ELISA plate was prepared using the BSA-glutaraldehyde surface chemistry as previously described in international Application No. PCT/US2018/044076, the content of which is herein incorporated by reference. In contrast to the previously described system, no nanoparticles were used. Therefore BSA can be denatured and combined with glutaraldehyde and used to coat ELISA wells. This is then activated using and (1-ethyl-3-(3-dimethylaminopropyl)carbodiimide hydrochloride)/[…] (EDC/NHS) to link to streptavidin which allows attachment of biotin-PEG-dual-histidine. It can be clearly seen full blocking of the ELISA plate when human plasma samples are used for histamine detection. […] As per to date, no method exists to detect histamine in less than 10 minutes.

[5] = system: anti-histamine antibody labelled with HRP; experiment: 5 min histamine ELISA with BSA-PEG-mono-Histidine conjugate coated plates; type: binding; conditions: 5 min incubation, FIG. 23
Protocol: The thiol-PEG-mono Histidine linker was attached to BSA as follows. A 1 mL aliquot of maleimide conjugation buffer obtained from Thermo scientific was added to 10 mg of purified thiol-PEG-mono Histidine linker. Subsequently, the 1 mL solution containing the thiol-PEG-mono Histidine was added to 5 mg of commercially available BSA-maleimide substrate and allowed to react at room temperature for 4 h to provide the histidine-PEG-BSA conjugate. The histidine-PEG-BSA conjugate was purified using a 10K spin column. The histidine-PEG-BSA conjugate obtained was then used to modify the ELISA plate wells and assay was performed using a 5 min incubation time. […] The steps include coating the plates with BSA-PEG-Histidine conjugate 222, blocking with BSA 224, and incubation with HRP labeled anti-histamine antibody and free histamine 226. FIG. 23 presents the results obtained and compared to BSA-histamine (commercial, FIG. 5). […] The used and anti-histamine antibody labelled with HRP in a 5 min incubation time assay.

[6] = system: Monoclonal Anti-Dinitrophenyl antibody conjugated with HRP; experiment: Competitive DNP ELISA with DNP linkers on streptavidin plates; type: binding, mouse; conditions: FIG. 25
Protocol: Monoclonal Anti-Dinitrophenyl antibody produced in mouse (D8406) and 2,4-Dinitrophenol (D198501 was purchased from Sigma. The anti-DNP antibody was directly conjugated with HRP using a commercial kit e.g., LIGHTENING-LINK™ Antibody Labeling Kits available from Novus Biolgicals. Once again ELISA plate coated with streptavidin was used as described in FIG. 19. After blocking, the plates were incubated with the respective linker. Different concentrations of DNP with anti-DNP antibody was co-incubated for 45 minutes at room temperature in the dark. After incubation, the wells were washed 3 times with 200 μL PBST and incubated with 150 μL TMB for 10 minutes. Finally, 150 μL of stop solution was added and absorbance measurement was observed. FIG. 25 is a plot showing ELISA results with Mono-DNP linker (blue) versus PEG-Dual-DNP linker (red). As with the dual histadine linkers, a clear difference could be seen between single and dual DNP linker. There is nearly a 30% increase in the signal intensity from single to dual DNP molecule.

[7] = system: anti-histamine antibody conjugated to HRP; experiment: ELISA affinity of anti-histamine antibody-HRP to different linkers, without free histamine; type: binding; conditions: 5 minutes, no free histamine, compared to PEG-mono-histidine linker, FIG. 26
From the text: FIG. 26 is a plot of a comparison of PEG-mono histamine with PEG-mono histidine using streptavidin coated ELISA plates. As illustrated, the data presents the affinity of anti-histamine antibody conjugated to HRP to different histamine conjugate linkers. As in the previous studies, streptavidin modified plates were used, here to study PEG-Mono-Histamine, PEG-mono-Histidine, PEG-phenyl-histidine and PEG-glutamate-histidine. The assay format was as per FIG. 19 without free histamine in the solution. The modified plates were then exposed to different concentrations of anti-histamine antibodies conjugated with HRP for 5 minutes.

anti-histamine antibody [8] = experiment: Electrochemical biosensor for free histamine detection; type: binding; conditions: gold electrode, FIG. 12B
Protocol: The Immuno-assay developed on the ELISA plates was translated to an electrochemical platform to provide a biosensor for free histamine detection. The lowest concentration tested with the sensor was 2.7 nM which generated a statistically significant difference from the background. […] FIG. 12B is a semi-log plot showing the calibration curves for the electrochemical sensor using the structure depicted by FIG. 12A. Detection occurs as free […] competes and displaces Biotin-PEG6-Histidine conjugate from the anti-histamine.

antibody binding specificity and sensitivity compared to the single histidine conjugate (anti-histamine antibody [1]; FIG. 11): significant improvement
Kd ([2]; FIG. 21): 280 nM
Kd (anti-histamine antibody [3]; Hill equation fit without the 0 nM histamine data point, human plasma): 6.76 nM
Molecule: NC(=O)C(CCCCNC(=O)C(CCCCNC(=O)C(N)Cc1c[nH]cn1)NC(=O)C(N)Cc1c[nH]cn1)NC(=O)CCOCCOCCOCCOCCNC(=O)CCCCC1SC[C@H]2NC(=O)N[C@@H]12 (stereo partly drawn) [PEG-dual Histidine, Biotin-PEG-Dual-Histidine]
starting signal compared to PEG-mono-histidine (anti-histamine antibody [1]; 5 min incubation of anti-histamine antibody, FIG. 18A): increased starting signal
starting signal compared to PEG-mono histidine [2]: higher starting signal
dynamic range compared to PEG-mono histidine ([2]; FIG. 21): broader dynamic range
histamine concentration generating a statistically significant current change (anti-histamine antibody [3]; spiked human plasma, FIG. 24): 3.75 nM
histamine detection in spiked human plasma (anti-histamine antibody [4]; BSA-glutaraldehyde surface chemistry, under 10-minute assay): clear detection of histamine
histamine detection in spiked human plasma (anti-histamine antibody [4]; ELISA plate prepared by conventional means): full blocking

Molecule: PEG-mono Histidine modified BSA: thiol-PEG-mono Histidine linker (Structure 5) attached to commercially available BSA-maleimide
sensitivity towards free histamine compared to BSA-histamine (commercial) [5]: increased sensitivity

Molecule: NC(=O)C(CCCCNC(=O)C(CCCCNc1cc([N+](=O)[O-])ccc1[N+](=O)[O-])Nc1cc([N+](=O)[O-])ccc1[N+](=O)[O-])NC(=O)CCOCCOCCOCCOCCNC(=O)CCCCC1SC[C@H]2NC(=O)N[C@@H]12 (stereo partly drawn) [dual DNP, Biotin-PEG-Dual-DNP]
increase in the signal intensity from single to dual DNP molecule ([6]; 45 min co-incubation): ~30%
dynamic range compared to single DNP linker [6]: broader dynamic range

binding affinity of anti-histamine antibody [7]: high binding affinity
Molecule: biotin-EG6-histamine [PEG-mono-histamine]
detection of free histamine (anti-histamine antibody [1]; concentration range studied, streptavidin coated plates, FIG. 15): could not be detected

binding affinity of anti-histamine antibody [7]: decreased significantly
Molecule: NC(=O)C(CCCCNC(=O)C(Cc1ccccc1)NC(=O)C(N)Cc1cnc[nH]1)NC(=O)CCOCCOCCOCCOCCNC(=O)CCCCC1SC[C@@H]2NC(=O)N[C@H]12 (stereo partly drawn) [PEG-phenyl-histidine, Biotin-PEG-Phenyl-Histadine]
sensitivity of the assay compared to PEG-mono-histidine ([2]; 5-minute histamine assay, FIG. 27): no significant difference
starting signal compared to PEG-mono histidine [2]: lower starting signal

binding affinity of anti-histamine antibody [7]: nearly no binding
Molecule: NC(=O)C(CCCCNC(=O)C(CCC(=O)O)CC(=O)C(N)Cc1cnc[nH]1)NC(=O)CCOCCOCCOCCOCCNC(=O)CCCCC1SC[C@H]2NC(=O)N[C@@H]12 (stereo partly drawn) [PEG-glutamate-histidine, Biotin-PEG-Glutamate-Histadine]

Kd ([2]; FIG. 21): 449 nM
Molecule: NC(Cc1c[nH]cn1)C(=O)NCCOCCOCCOCCOCCOCCOCCNC(=O)CCCCC1SC[C@H]2NC(=O)N[C@@H]12 (stereo partly drawn) [PEG-mono Histidine, Biotin-PEG-Mono-Histidine]
signal enhancement and sensitivity versus immobilized BSA-histamine (anti-histamine antibody [1]; FIG. 10): significantly improved
lowest concentration tested generating a statistically significant difference from the background (anti-histamine antibody [8]): 2.7 nM
